Test system: 186277-243-T-J2-PDC complex spheroids, viability
Assay: Anticancer human tumor 186277-243-T-J2-PDC patient-derived colon adenocarcinoma cell line growth inhibition [RAS]
Conditions: for IC50: curve of first compound; for viability, T/C: stronger effect = lower value; active means viability on the fitted dose curve at most 10% of control; inactive means the rest
Method in brief: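 Multi-cell-type spheroids: tumor cells plus HUVEC endothelial cells and mesenchymal stem cells. RAS-pathway inhibitors were combined with targeted agents, each dosed in half-log steps down from clinical Cmax, or from 10 microM when Cmax was unknown.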

[1] = second compound 0.00316 µM, first compound 0.0316 µM
[2] = second compound 0.00316 µM, first compound 0.1 µM
[3] = second compound 0.00316 µM, first compound 0.316 µM
[4] = second compound 0.00316 µM, first compound 1 µM
[5] = second compound 0.00316 µM, first compound 3.16 µM
[6] = second compound 0.00316 µM, first compound 10 µM
[7] = second compound 0.01 µM, first compound 0.0316 µM
[8] = second compound 0.01 µM, first compound 0.1 µM
[9] = second compound 0.01 µM, first compound 0.316 µM
[10] = second compound 0.01 µM, first compound 1 µM
[11] = second compound 0.01 µM, first compound 3.16 µM
[12] = second compound 0.01 µM, first compound 10 µM
[13] = second compound 0.0316 µM, first compound 0.0316 µM
[14] = second compound 0.0316 µM, first compound 0.1 µM
[15] = second compound 0.0316 µM, first compound 0.316 µM
[16] = second compound 0.0316 µM, first compound 1 µM
[17] = second compound 0.0316 µM, first compound 3.16 µM
[18] = second compound 0.0316 µM, first compound 10 µM
[19] = second compound 0.1 µM, first compound 0.0316 µM
[20] = second compound 0.1 µM, first compound 0.1 µM
[21] = second compound 0.1 µM, first compound 0.316 µM
[22] = second compound 0.1 µM, first compound 1 µM
[23] = second compound 0.1 µM, first compound 3.16 µM
[24] = second compound 0.1 µM, first compound 10 µM
[25] = second compound 0.316 µM, first compound 0.0316 µM
[26] = second compound 0.316 µM, first compound 0.1 µM
[27] = second compound 0.316 µM, first compound 0.316 µM
[28] = second compound 0.316 µM, first compound 1 µM
[29] = second compound 0.316 µM, first compound 3.16 µM
[30] = second compound 0.316 µM, first compound 10 µM
[31] = second compound 1 µM, first compound 0.0316 µM
[32] = second compound 1 µM, first compound 0.1 µM
[33] = second compound 1 µM, first compound 0.316 µM
[34] = second compound 1 µM, first compound 1 µM
[35] = second compound 1 µM, first compound 3.16 µM
[36] = second compound 1 µM, first compound 10 µM
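Further: spheroids exposed to compounds for 7 days before viability read.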

CC1(O)CCCC1n1c(=O)c(C(F)F)cc2cnc(NC3CCN(S(C)(=O)=O)CC3)nc21 (stereo not drawn) + C=CC(=O)N1CCN(c2nc(OCC3CCCN3C)nc3c(F)c(-c4nc(N)cc(C)c4C(F)(F)F)c(Cl)cc23)C(C)C1
5.15 µM: IC50 (second compound 0.1 µM)
4.94 µM: IC50 (second compound 1 µM)
inactive: viability, T/C [1] 95.5% | viability, T/C [2] 113% | viability, T/C [3] 101% | viability, T/C [4] 99.3% | viability, T/C [5] 63% | viability, T/C [7] 92.8% | viability, T/C [8] 96.8% | viability, T/C [9] 93.5% | viability, T/C [10] 96.8% | viability, T/C [11] 79.3% | viability, T/C [13] 101% | viability, T/C [14] 135% | viability, T/C [15] 87.8% | viability, T/C [16] 107% | viability, T/C [17] 77.5% | viability, T/C [19] 95.3% | viability, T/C [20] 109% | viability, T/C [21] 105% | viability, T/C [22] 89.9% | viability, T/C [23] 87% | viability, T/C [25] 91.3% | viability, T/C [26] 118% | viability, T/C [27] 88.1% | viability, T/C [28] 84.1% | viability, T/C [29] 81.8% | viability, T/C [31] 117% | viability, T/C [32] 123% | viability, T/C [33] 94.9% | viability, T/C [34] 115% | viability, T/C [35] 80.7%
active: viability, T/C [6] 2.71% | viability, T/C [12] 2.97% | viability, T/C [18] 2.9% | viability, T/C [24] 2.79% | viability, T/C [30] 2% | viability, T/C [36] 1.52%
4.83 µM: IC50 (second compound 0.316 µM)
4.92 µM: IC50 (second compound 0.01 µM)
4.81 µM: IC50 (second compound 0.0316 µM)
4.05 µM: IC50 (second compound 0.00316 µM)

CCC(CC)c1cc(NC2CCC(N)C2)n2nccc2n1 (stereo not drawn) + C=CC(=O)N1CCN(c2nc(OCC3CCCN3C)nc3c(F)c(-c4nc(N)cc(C)c4C(F)(F)F)c(Cl)cc23)C(C)C1
1.6 µM: IC50 (second compound 1 µM)
1.81 µM: IC50 (second compound 0.316 µM)
active: viability, T/C [5] 7.95% | viability, T/C [6] 0.31% | viability, T/C [11] 7.63% | viability, T/C [12] 0.49% | viability, T/C [17] 5.08% | viability, T/C [18] 0.32% | viability, T/C [23] 3.18% | viability, T/C [24] 0.31% | viability, T/C [29] 2.74% | viability, T/C [30] 0.35% | viability, T/C [35] 2.87% | viability, T/C [36] 0.37%
1.55 µM: IC50 (second compound 0.1 µM)
1.86 µM: IC50 (second compound 0.00316 µM)
inactive: viability, T/C [1] 91.8% | viability, T/C [2] 97.2% | viability, T/C [3] 89.5% | viability, T/C [4] 117% | viability, T/C [7] 78% | viability, T/C [8] 103% | viability, T/C [9] 76.2% | viability, T/C [10] 84.2% | viability, T/C [13] 86.4% | viability, T/C [14] 93.5% | viability, T/C [15] 93.8% | viability, T/C [16] 115% | viability, T/C [19] 93% | viability, T/C [20] 102% | viability, T/C [21] 77.5% | viability, T/C [22] 79% | viability, T/C [25] 81% | viability, T/C [26] 94.3% | viability, T/C [27] 117% | viability, T/C [28] 109% | viability, T/C [31] 102% | viability, T/C [32] 91.8% | viability, T/C [33] 101% | viability, T/C [34] 82.9%
1.67 µM: IC50 (second compound 0.01 µM)
1.8 µM: IC50 (second compound 0.0316 µM)

Cc1nc(N2CCC3(CC2)COC(C)C3N)c(CO)nc1Sc1ccnc(N)c1Cl (stereo not drawn) + C=CC(=O)N1CCN(c2nc(OCC3CCCN3C)nc3c(F)c(-c4nc(N)cc(C)c4C(F)(F)F)c(Cl)cc23)C(C)C1
inactive: viability, T/C [1] 102% | viability, T/C [2] 102% | viability, T/C [3] 127% | viability, T/C [4] 108% | viability, T/C [5] 116% | viability, T/C [6] 78.9% | viability, T/C [7] 99.8% | viability, T/C [8] 101% | viability, T/C [9] 94.4% | viability, T/C [10] 85.2% | viability, T/C [11] 89.2% | viability, T/C [12] 78.7% | viability, T/C [13] 86.8% | viability, T/C [14] 103% | viability, T/C [15] 113% | viability, T/C [16] 117% | viability, T/C [17] 83.2% | viability, T/C [18] 80.4% | viability, T/C [19] 94% | viability, T/C [20] 86.6% | viability, T/C [21] 91.6% | viability, T/C [22] 104% | viability, T/C [23] 87.7% | viability, T/C [24] 87.9% | viability, T/C [25] 90.6% | viability, T/C [26] 93.3% | viability, T/C [27] 104% | viability, T/C [28] 115% | viability, T/C [29] 95.7% | viability, T/C [30] 75.8% | viability, T/C [31] 103% | viability, T/C [32] 100% | viability, T/C [33] 91.8% | viability, T/C [34] 99.1% | viability, T/C [35] 92.6% | viability, T/C [36] 83.8%
> 10 µM: IC50 (second compound 0.00316 µM) | IC50 (second compound 0.01 µM) | IC50 (second compound 0.0316 µM) | IC50 (second compound 0.1 µM) | IC50 (second compound 0.316 µM) | IC50 (second compound 1 µM)

NC1c2ccccc2OC12CCN(c1cnc3c(N4CCCc5ncccc54)n[nH]c3n1)CC2 (stereo not drawn) + C=CC(=O)N1CCN(c2nc(OCC3CCCN3C)nc3c(F)c(-c4nc(N)cc(C)c4C(F)(F)F)c(Cl)cc23)C(C)C1
inactive: viability, T/C [1] 83.8% | viability, T/C [2] 94.6% | viability, T/C [3] 101% | viability, T/C [4] 75% | viability, T/C [5] 64.4% | viability, T/C [6] 50.3% | viability, T/C [7] 100% | viability, T/C [8] 109% | viability, T/C [9] 100% | viability, T/C [10] 67.9% | viability, T/C [11] 72.6% | viability, T/C [12] 57.6% | viability, T/C [13] 95.5% | viability, T/C [14] 108% | viability, T/C [15] 89.6% | viability, T/C [16] 79.4% | viability, T/C [17] 82.1% | viability, T/C [18] 45.8% | viability, T/C [19] 85% | viability, T/C [20] 96.7% | viability, T/C [21] 77.4% | viability, T/C [22] 80.7% | viability, T/C [23] 84% | viability, T/C [24] 47.3% | viability, T/C [25] 108% | viability, T/C [26] 110% | viability, T/C [27] 88.7% | viability, T/C [28] 85.3% | viability, T/C [29] 84.3% | viability, T/C [30] 52.4% | viability, T/C [31] 112% | viability, T/C [32] 92.5% | viability, T/C [33] 79.6% | viability, T/C [34] 88.7% | viability, T/C [35] 78.5% | viability, T/C [36] 45%
9.07 µM: IC50 (second compound 0.0316 µM)
> 10 µM: IC50 (second compound 0.00316 µM) | IC50 (second compound 0.01 µM) | IC50 (second compound 0.316 µM) | IC50 (second compound 1 µM)
9.17 µM: IC50 (second compound 0.1 µM)

Reference: PubChem BioAssay AID2060908 (Molecular Pharmacology Branch, DTP, NCI, 2025)
